From ChEMBL document CHEMBL1135877, “Neurotrophic activity of honokiol on the cultures of fetal rat cortical neurons” (2002)

Assays:
Format in all cases: functional
[1] = species on record: Rattus norvegicus; assay: Compound was tested at 0.01 uM concentration for neurotrophic activity on cultures of E 18 SD rat cortical neurons
[2] = species on record: Rattus norvegicus; assay: Compound was tested at 0.1 uM concentration for neurotrophic activity on cultures of E 18 SD rat cortical neurons
[3] = species on record: Rattus norvegicus; assay: Compound was tested at 1 uM concentration for neurotrophic activity on cultures of E 18 SD rat cortical neurons
[4] = species on record: Rattus norvegicus; assay: Compound was tested at 10 uM concentration for neurotrophic activity on cultures of E 18 SD rat cortical neurons
[5] = species on record: Rattus norvegicus; assay: Compound was tested at 100 uM concentration for neurotrophic activity on cultures of E 18 SD rat cortical neurons

C=CCc1ccc(O)c(-c2ccc(O)c(CC=C)c2)c1 [HONOKIOL]
Control [1]: 95.6% | Control [2]: 106% | Control [3]: 113% | Control [4]: 143% | Control [5]: 29.7%
